Reference: patent US11554172B2, “Phosphonate linkers and their use to facilitate cellular retention of compounds” (priority 2016, dated 2023)

What follows are compounds tested against GR full length protein (glucocorticoid receptor) (Homo sapiens (Human), UniProt P04150) (assay: PolarScreen Glucocorticoid Receptor Competitor Assay (GR binding)). Conditions: fluorescence polarisation competitor assay, 2-4 hours at room temperature; read-out: GR Bind IC50.
GR full length protein (glucocorticoid receptor), sequence (P04150 whole entry): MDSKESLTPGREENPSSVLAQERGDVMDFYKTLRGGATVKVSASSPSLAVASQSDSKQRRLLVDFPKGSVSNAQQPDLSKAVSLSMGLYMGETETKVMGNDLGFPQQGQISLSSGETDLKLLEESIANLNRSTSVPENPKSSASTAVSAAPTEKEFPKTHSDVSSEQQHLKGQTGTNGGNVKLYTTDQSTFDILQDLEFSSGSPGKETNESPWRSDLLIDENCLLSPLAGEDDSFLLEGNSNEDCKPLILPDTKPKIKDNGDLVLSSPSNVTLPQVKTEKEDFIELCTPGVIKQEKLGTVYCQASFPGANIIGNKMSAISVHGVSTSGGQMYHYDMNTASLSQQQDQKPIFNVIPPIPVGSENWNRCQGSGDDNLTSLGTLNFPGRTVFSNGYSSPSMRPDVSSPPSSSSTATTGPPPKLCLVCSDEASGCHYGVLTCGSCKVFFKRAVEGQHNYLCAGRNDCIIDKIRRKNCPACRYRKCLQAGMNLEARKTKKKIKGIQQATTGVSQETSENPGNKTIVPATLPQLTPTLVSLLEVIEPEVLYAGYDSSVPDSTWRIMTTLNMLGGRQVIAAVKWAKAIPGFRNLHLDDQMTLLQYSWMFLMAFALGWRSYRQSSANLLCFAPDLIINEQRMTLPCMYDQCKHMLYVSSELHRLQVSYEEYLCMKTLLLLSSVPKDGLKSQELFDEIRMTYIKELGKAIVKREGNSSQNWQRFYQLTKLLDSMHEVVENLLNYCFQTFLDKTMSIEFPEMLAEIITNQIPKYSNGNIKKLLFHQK
Experimental: The potency of binding to gucocorticoid receptor by small molecule compounds was measured with the PolarScreen™ Glucocorticoid Receptor Competitor Assay Kit, Red (Life Technology, Catalog #A15898) according to the procedure in the kit. In brief, after compounds were diluted and transferred into assay plates, the fluormone GS red and GR full length protein were subsequently added into the assay plates, along with the positive and negative controls. The samples were mixed on a shaker for 1 minute and then the plates were incubated at room temperature for 2-4 hours with minimal light exposure. The plates were read with an Envision and the relative fluorescent signals were calculated. The data were plotted in GraphPad Prism and the EC50 values were calculated with non-linear regression curve fit of the data in GraphPad Prism.

Compound	IC50 [µM]
C[C@@H]1C[C@H]2[C@@H]3C[C@H](F)C4=CC(=O)C=C[C@]4(C)[C@@]3(F)[C@@H](O)C[C@]2(C)[C@@]1(OC(=O)CCCCCP(=O)(O)O)C(=O)SCF [Compound 19, (6-(((6S,8S,9R,10S,11S,13S,14S,16R,17R)-6,9-difluoro-17-(((fluoromethyl)thio)carbonyl)-11-hydroxy-10,13,16-trimethyl-3-oxo-6,7,8,9,10,11,12,13,14,15,16,17-dodecahydro-3H-cyclopenta[a]phenanthren-17-yl)oxy)-6-oxohexyl)phosphonic acid]	0.00014

These compounds were tested on GILZ gene (assay: GILZ gene assay (qPCR, HUT78 / 786-O cells)). Conditions: at 10 uM.
Type: cell-based
Experimental: GILZ gene assays were conducted as follows. HUT78 cells were cultured in IMEM plus 20% heat inactivated FBS and cell density was maintained between 0.1 to 1.2 million/mL. 786-O cells were cultured in RPMI plus 10% heat inactivated FBS. Actively growing cells were harvested and resuspended in HBSS with 2% FBS at 1.1 million cells per mL then dispensed to 384-well V-bottom plates at 45 μL per well. Serially diluted ADC solution was added to the cell plate (5 μL per well) and mixed for 2 min. Cells were then cultured at 37° C., at 5% CO2 for a designated time before supernatant was removed. Cells were harvested in lysis buffer from the Cells-to-Ct kit (40 μL, Life Technologies, 4391851C) following the supplier's protocol and mixed for 10 min followed by addition of 5 μL per well of stop solution from the kit. cDNA was synthesized with a reverse transcription kit (Life Technologies, 4391852C) follow by qPCR using the TaqMan gene expression master mix (Life Technologies, 4369016) with GILZ gene assay (Life Technologies, Hs00608272_m1) and GAPDH assay (Hs2758991_g1) in a duplex format with 3-4 technical replicates.

Compound	GILZ Max
(6-(3-((3aR,4aS,4bS,11aR,11bS,12S,13aS,13bS)-12-hydroxy-13b-(2-hydroxyacetyl)-11a,13a-dimethyl-2-propyl-4,4a,5,6,11,11a,11b,12,13,13a-decahydro-[1,3]dioxolo[4″,5″:3′,4′]cyclopenta[1′,2′:5,6]naphtho[,2-f]indazol-8(3aH,4bH,13bH)-yl)phenoxy)hexyl)phosphonic acid [Compound 27]	80% (at

Same assay, conditions: read-out: GILZ EC50

Compound	EC50 [µM]
(6-(3-((3aR,4aS,4bS,11aR,11bS,12S,13aS,13bS)-12-hydroxy-13b-(2-hydroxyacetyl)-11a,13a-dimethyl-2-propyl-4,4a,5,6,11,11a,11b,12,13,13a-decahydro-[1,3]dioxolo[4″,5″:3′,4′]cyclopenta[1′,2′:5,6]naphtho[,2-f]indazol-8(3aH,4bH,13bH)-yl)phenoxy)hexyl)phosphonic acid [Compound 27]	2.76
C[C@@H]1C[C@H]2[C@@H]3C[C@H](F)C4=CC(=O)C=C[C@]4(C)[C@@]3(F)[C@@H](O)C[C@]2(C)[C@@]1(OC(=O)CCCCCP(=O)(O)O)C(=O)SCF [Compound 19, (6-(((6S,8S,9R,10S,11S,13S,14S,16R,17R)-6,9-difluoro-17-(((fluoromethyl)thio)carbonyl)-11-hydroxy-10,13,16-trimethyl-3-oxo-6,7,8,9,10,11,12,13,14,15,16,17-dodecahydro-3H-cyclopenta[a]phenanthren-17-yl)oxy)-6-oxohexyl)phosphonic acid]	1.29

These compounds were tested on MDCKII cells (assay: Apparent permeability in MDCKII cells). Conditions: Papp, average of A to B and B to A, 1 μM test compound, t=3 hr.
Type: in vitro ADME
Experimental: Determination of apparent permeability was as follows. MDCKII cells (kindly provided by the Netherlands Cancer Institute, under a licensing agreement) were seeded on to 96-well transwell culture plates (Millipore Corp, Billerica, Mass.) and used in experiments after five days in culture. […] Substrate solution (150 μL) was added to either the apical (A) or the basolateral (B) compartment of the culture plate, and buffer (150 μL; HBSS, 10 mM HEPES, pH 7.4) with 10 μM cyclosporine A was added to the compartment opposite to that containing the substrate. At t=3 hr, 50 μL samples were removed from both sides of monolayers dosed with test compound and placed in 96 well plates, 50 μL internal standard (1 μM labetolol) and 100 μL HBSS was added to the samples. Samples were analyzed by LC/MS/MS using an Applied Biosystems SCIEX API 5000 triple quadruple mass spectrometer (Concord, ON, Canada) with a TurboIonSpray ion source in the positive ion mode. A Thermo Scientific Transcend LX-2 system (Franklin, Mass.) was coupled to the API 5000 with a flow rate of 800 μL/min to direct sample into the mass spectrometer.
Papp was expressed as 10-6 cm/s.

Compound	MDCK Permeability (cm × 10-6/sec)
C[C@@H]1C[C@H]2[C@@H]3C[C@H](F)C4=CC(=O)C=C[C@]4(C)[C@@]3(F)[C@@H](O)C[C@]2(C)[C@@]1(O)C(=O)SCCCCP(=O)(O)O [Compound 5]	1.84
CCC(=O)O[C@]1(C(=O)SCCCCCCCCCCP(=O)(O)O)[C@H](C)C[C@H]2[C@@H]3C[C@H](F)C4=CC(=O)C=C[C@]4(C)[C@@]3(F)[C@@H](O)C[C@@]21C [Compound 3, (10-(((6S,8S,9R,10S,11S,13S,14S,16R,17R)-6,9-difluoro-11-hydroxy-10,13,16-trimethyl-3-oxo-17-(propionyloxy)-6,7,8,9,10,11,12,13,14,15,16,17-dodecahydro-3H-cyclopenta[a]phenanthrene-17-carbonyl)thio)decyl)phosphonic acid]	1.04
C[C@@H]1C[C@H]2[C@@H]3C[C@H](F)C4=CC(=O)C=C[C@]4(C)[C@@]3(F)[C@@H](O)C[C@]2(C)[C@@]1(OC(=O)CCCCCCCCP(=O)(O)O)C(=O)SCF [Compound 18, (9-(((6S,8S,9R,10S,11S,13S,14S,16R,17R)-6,9-difluoro-17-(((fluoromethyl)thio)carbonyl)-11-hydroxy-10,13,16-trimethyl-3-oxo-6,7,8,9,10,11,12,13,14,15,16,17-dodecahydro-3H-cyclopenta[a]phenanthren-17-yl)oxy)-9-oxononyl)phosphonic acid]	<0.9
C[C@@H]1C[C@H]2[C@@H]3C[C@H](F)C4=CC(=O)C=C[C@]4(C)[C@@]3(F)[C@@H](O)C[C@]2(C)[C@@]1(O)C(=O)SCCCCCCCCCCP(=O)(O)O [Compound 8]	2.8
CCCC1O[C@@H]2C[C@H]3[C@@H]4CCC5=Cc6c(cnn6-c6cccc(OCCCCP(=O)(O)O)c6)C[C@]5(C)[C@H]4[C@@H](O)C[C@]3(C)[C@]2(C(=O)CO)O1 (stereo partly shown) [Compound 28]	1.6
CCCC1O[C@@H]2C[C@H]3[C@@H]4CCC5=Cc6c(cnn6-c6ccc(OCCCCCCP(=O)(O)O)cc6)C[C@]5(C)[C@H]4[C@@H](O)C[C@]3(C)[C@]2(C(=O)CO)O1 (stereo partly shown) [Compound 31]	4.1
CCC(=O)O[C@]1(C(=O)SCF)[C@H](C)C[C@H]2[C@@H]3C[C@H](F)C4=CC(=O)C=C[C@]4(C)[C@@]3(F)[C@@H](O)C[C@@]21C [Fluticasone Propionate, reference compound]	21.5
CCCC1O[C@@H]2C[C@H]3[C@@H]4CCC5=CC(=O)C=C[C@]5(C)[C@H]4[C@@H](O)C[C@]3(C)[C@]2(C(=O)CO)O1 (stereo partly shown) [Budesonide, reference compound]	31.6
CCC(=O)O[C@]1(C(=O)SCCCCP(=O)(O)O)[C@H](C)C[C@H]2[C@@H]3C[C@H](F)C4=CC(=O)C=C[C@]4(C)[C@@]3(F)[C@@H](O)C[C@@]21C [Compound 4]	1.72
CCCC1O[C@@H]2C[C@H]3[C@@H]4CCC5=Cc6c(cnn6-c6ccc(OCCCCP(=O)(O)O)cc6)C[C@]5(C)[C@H]4[C@@H](O)C[C@]3(C)[C@]2(C(=O)CO)O1 (stereo partly shown) [Compound 30]	1.9
C[C@@H]1C[C@H]2[C@@H]3C[C@H](F)C4=CC(=O)C=C[C@]4(C)[C@@]3(F)[C@@H](O)C[C@]2(C)[C@@]1(O)C(=O)SCCCCCCP(=O)(O)O [Compound 10]	1.9
CCC(=O)O[C@]1(C(=O)SCCCCCCP(=O)(O)O)[C@H](C)C[C@H]2[C@@H]3C[C@H](F)C4=CC(=O)C=C[C@]4(C)[C@@]3(F)[C@@H](O)C[C@@]21C [Compound 7]	2
